Test results from ChEMBL document CHEMBL1126614, “Substituted benzamides with conformationally restricted side chains. 5. Azabicyclo[x.y.z] derivatives as 5-HT4 receptor agonists and gastric motility stimulants” (1993).
In brackets after ≈: the same amount, converted by molar mass.

Legend:
[1] = molecular target: T1, Serotonin 3 (5-HT3) receptor (Rattus norvegicus) (UniProt P35563+Q9JJ16); test: Tested for 5-HT 3 receptor antagonist potency by ability to inhibit the reflex bradycardia, the Bezold-Jarisch reflex in the rat; format: functional
[2] = molecular target: 5-hydroxytryptamine receptor 4 (Rattus norvegicus) (UniProt Q62758); test: Stimulatory activity of intragastric pressure was tested in the rat; format: functional
[3] = species on record: Canis familiaris; test: Tested against rhythmic contractile activity in a Heidenhain pouch dog preparation; format: functional, Canis lupus familiaris
[4] = molecular target: 5-hydroxytryptamine receptor 4 (Cavia porcellus) (UniProt O70528); test: Relative ability to increase cholinergically mediated contractions in isolated ileum of guinea pig; format: functional, tissue-based
[5] = molecular target: T1, Serotonin 3 (5-HT3) receptor (Rattus norvegicus); test: Compound was tested for its 5-HT 3 receptor antagonist potency by their ability to inhibit the reflex bradycardia, the Bezold-Jarisch reflex in the rat; format: functional

5-hydroxytryptamine receptor 4 (Rattus norvegicus), sequence (Q62758 whole entry): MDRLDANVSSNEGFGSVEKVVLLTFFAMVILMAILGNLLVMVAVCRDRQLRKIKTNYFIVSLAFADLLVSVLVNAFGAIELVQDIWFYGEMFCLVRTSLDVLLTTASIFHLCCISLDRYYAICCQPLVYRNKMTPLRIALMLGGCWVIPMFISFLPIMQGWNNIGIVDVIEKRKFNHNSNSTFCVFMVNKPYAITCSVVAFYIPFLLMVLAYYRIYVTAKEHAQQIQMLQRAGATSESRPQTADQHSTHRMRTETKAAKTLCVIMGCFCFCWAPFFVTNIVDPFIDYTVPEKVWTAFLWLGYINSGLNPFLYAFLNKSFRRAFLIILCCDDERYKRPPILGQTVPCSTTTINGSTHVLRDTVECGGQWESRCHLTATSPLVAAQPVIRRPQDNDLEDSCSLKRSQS
5-hydroxytryptamine receptor 4 (Cavia porcellus), sequence (O70528 whole entry): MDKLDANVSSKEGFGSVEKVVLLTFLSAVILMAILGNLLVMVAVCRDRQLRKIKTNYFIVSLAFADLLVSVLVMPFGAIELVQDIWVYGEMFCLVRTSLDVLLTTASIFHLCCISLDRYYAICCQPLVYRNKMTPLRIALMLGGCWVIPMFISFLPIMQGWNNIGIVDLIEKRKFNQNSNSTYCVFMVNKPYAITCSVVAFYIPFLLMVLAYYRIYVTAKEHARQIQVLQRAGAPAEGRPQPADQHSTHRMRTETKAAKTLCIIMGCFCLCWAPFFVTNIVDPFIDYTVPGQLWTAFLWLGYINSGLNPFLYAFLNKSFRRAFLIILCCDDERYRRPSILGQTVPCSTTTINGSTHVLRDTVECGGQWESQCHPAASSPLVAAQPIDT

SMILES | ID50 [1] [mg/kg] | ED50 [2] [mg/kg] | EC20 [4] [ng/mL] | ID50 [5] [mg/kg] | LAD [3] [mg/kg]
COc1cc(N)c(Cl)cc1C(=O)NC1C2CC3CCN(C2)CC1C3 (stereo in doubt; endo) [listing 1 of 2 here] | 0.0034 | – | – | – | –
COc1cc(N)c(Cl)cc1C(=O)NC1CCN2CCOC1C2 (stereo in doubt) | 0.019 | 0.1 | – | – | –
CCN(CC)CCNC(=O)c1cc(Cl)c(N)cc1OC [METOCLOPRAMIDE] | 0.5 | 1 | 120 (≈ 0.4 µM) | – | 0.25
COc1cc(N)c(Cl)cc1C(=O)NC1C2CC3CCN(C2)CC1C3 (stereo in doubt; exo) [listing 1 of 2 here] | – | – | – | – | 0.05
COc1cc(N)c(Cl)cc1C(=O)N[C@H]1CCN2CCC[C@@H]1C2 [listing 1 of 2 here] | 0.0042 | – | 22 (≈ 0.0679 µM) | – | –
COc1cc(N)c(Cl)cc1C(=O)NC1CCN2CCOC1C2 (single isomer, unassigned; (+)) [listing 1 of 2 here] | 0.018 | 0.1 | – | – | –
COc1cc(N)c(Cl)cc1C(=O)NC1CCN2CCCC1C2 (stereo in doubt) [RENZAPRIDE] | – | – | – | – | 0.01
COc1cc(N)c(Cl)cc1C(=O)NC1CN2CCCC1C2 (stereo in doubt; exo) [listing 1 of 2 here] | – | – | – | – | 0.05
COc1cc(N)c(Cl)cc1C(=O)NC1CCN2CCCC1C2 (stereo in doubt; 5d) [RENZAPRIDE] | – | – | – | – | 0.005
COc1cc(N)c(Cl)cc1C(=O)N[C@H]1CCN2CCC[C@@H]1C2 (relative stereo) [listing 1 of 2 here] | – | – | – | – | 0.05
COc1cc(N)c(Cl)cc1C(=O)NC1CN2CCCC1C2 (stereo in doubt; exo) [listing 2 of 2 here] | 0.045 | – | 47 (≈ 0.152 µM) | – | –
COc1cc(N)c(Cl)cc1C(=O)NC1C2CC3CCN(C2)CC1C3 (stereo in doubt; endo) [listing 2 of 2 here] | – | – | – | – | 0.01
COc1cc(N)c(Cl)cc1C(=O)NC1CN2CCCC1C2 (stereo in doubt; endo) [listing 1 of 2 here] | – | – | – | – | 0.01
COc1cc(N)c(Cl)cc1C(=O)NC1CCN2CCOC1C2 (single isomer, unassigned; (+)) [listing 2 of 2 here] | – | – | – | – | 0.01
COc1cc(N)c(Cl)cc1C(=O)NC1CCNCC12CCC2C (configuration not stated) | – | – | 18 (≈ 0.0533 µM) | – | 0.05
COc1cc(N)c(Cl)cc1C(=O)NC1CCN2CCOC1C2 (single isomer, unassigned; (-)) | 0.032 | 0.1 | – | – | –
COc1cc(N)c(Cl)cc1C(=O)NC1C2CC3CCN(C2)CC1C3 (stereo in doubt; exo) [listing 2 of 2 here] | 0.059 | – | – | – | –
COc1cc(N)c(Cl)cc1C(=O)N[C@H]1CCN2CCC[C@@H]1C2 [listing 2 of 2 here] | – | – | – | – | 0.01

Second part, led by results:

ID50 [1] [mg/kg] | ED50 [2] [mg/kg] | EC20 [4] [ng/mL] | ID50 [5] [mg/kg] | SMILES | LAD [3] [mg/kg]
0.03 | 0.1 | 0.4 (≈ 0.00124 µM) | – | COc1cc(N)c(Cl)cc1C(=O)NC1CCN2CCCC1C2 (stereo in doubt; 5d) | –
– | – | – | 0.086 | COc1cc(N)c(Cl)cc1C(=O)NC12CCC(CC1)NC2 | 0.01
0.0033 | 0.1 | 7 (≈ 0.0216 µM) | – | COc1cc(N)c(Cl)cc1C(=O)NC1CCN2CCCC1C2 (stereo in doubt) | –
– | – | 56 (≈ 0.159 µM) | – | COc1cc(N)c(Cl)cc1C(=O)NC1CCNC(C)C12CCC2C (configuration not stated) | 0.05
0.0055 | > 1 | 2 (≈ 0.00618 µM) | – | COc1cc(N)c(Cl)cc1C(=O)NC1CC2CCCN(C2)C1 (configuration not stated) | >0.1
> 0.1 | – | 87 (≈ 0.269 µM) | – | COc1cc(N)c(Cl)cc1C(=O)N[C@H]1CCN2CCC[C@@H]1C2 (relative stereo) [listing 2 of 2 here] | –
– | 0.5 | – | – | COc1cc(N)c(Cl)cc1C(=O)NC1CCN2CCSC1C2 (configuration not stated) | 0.01
0.0039 | – | 32 (≈ 0.0988 µM) | – | COc1cc(N)c(Cl)cc1C(=O)NC1CCN2CCCC1C2 (single isomer, unassigned; (-)) | –
0.003 | 0.06 | 17 (≈ 0.0549 µM) | – | COc1cc(N)c(Cl)cc1C(=O)NC1CN2CCCC1C2 (stereo in doubt; endo) [listing 2 of 2 here] | –
– | – | 150 (≈ 0.444 µM) | – | COc1cc(N)c(Cl)cc1C(=O)NC1CC(C)NCC12CCC2 (configuration not stated) | 0.25
